In patent US12257246B2, “Composition of 2,4,6-trifluoro-n-[6-(1-methyl-piperidin-4-carbonyl)-pyridin-2-yl[-benzamide” (CoLucid Pharmaceuticals, Inc., priority 2009, dated 2025):

What was measured:
[1] = tested on: migraine; settings: in vivo; cited from earlier work
[2] = tested on: rabbit saphenous vein; settings: EC50 divided by %max KCl
[3] = tested on: rabbit saphenous vein; experiment: cells; settings: Oryctolagus cuniculus, read-out: saphenous vein contraction EC50

| Structure (SMILES) | efficacy in acute treatment of migraine [1] | corrected vasoconstriction EC50 [2] [nM] | EC50 [3] [nM] |
| --- | --- | --- | --- |
| CN1CCC(c2c[nH]c3ccc(NC(=O)c4ccc(F)cc4)cc23)CC1 [LY334370] | proved effective |  |  |
| CNS(=O)(=O)Cc1ccc2[nH]cc(CCN(C)C)c2c1 [sumatriptan] |  | 10.3 | 660 |
